Results on two compounds are retold here after paper PMC8623273, “Novel N7-Arylmethyl Substituted Dinucleotide mRNA 5′ cap Analogs: Synthesis and Evaluation as Modulators of Translation” (Pharmaceutics, 2021).

The term IC50 denotes the concentration needed to halve the response being measured. One may read the EC50 as the concentration needed to bring the measured effect to its halfway point. By Kd is commonly meant a measure of binding affinity in units of concentration.

Data set [1] deals with T1, hDcpS (Homo sapiens, UniProt Q96C86).
T1 sequence (Q96C86 1-337): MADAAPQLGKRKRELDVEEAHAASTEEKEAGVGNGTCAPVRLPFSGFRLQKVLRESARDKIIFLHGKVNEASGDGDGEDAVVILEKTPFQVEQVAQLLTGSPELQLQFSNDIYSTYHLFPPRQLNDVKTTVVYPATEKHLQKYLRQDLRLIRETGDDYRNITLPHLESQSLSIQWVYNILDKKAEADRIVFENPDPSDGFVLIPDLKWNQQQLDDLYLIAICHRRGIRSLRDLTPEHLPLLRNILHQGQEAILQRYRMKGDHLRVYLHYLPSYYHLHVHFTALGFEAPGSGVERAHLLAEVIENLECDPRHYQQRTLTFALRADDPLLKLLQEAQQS
The class given is in vitro ADME. The settings on record: 100 μM compound, 20 nM hDcpS. How it is done: Susceptibility to decapping scavenger (DcpS) is one of the factors that could potentially influence the cellular stability of mono- and dinucleotide cap analogs designed as translational inhibitors. Therefore, we studied the susceptibility of arylmethyl-modified dinucleotides to DcpS. The compounds (at 100 μM concentration each) were incubated with 20 nM of hDcpS, and the hydrolysis progress at different time points was analyzed via RP HPLC and compared to m^7GpppG (Figure 4 and Figure S3).
The enzymatic activity of DcpS was assayed at 37 °C in 50 mM Tris∙HCl, pH 7.6 containing 200 mM KCl, 0.5 mM EDTA. DcpS cleavage assays were carried out with 100 μM of the tested compound and 20 nM (monomer) of the hDcpS. Enzymatic reaction progress was examined after 30, 60 and 180 min. As a control, a sample was examined before adding enzyme. Aliquots of 15 μL were terminated by heat inactivation of the enzyme for 3 min at 98 °C. The samples were analyzed via RP HPLC equipped with a Supelcosil LC-18-T column (4.6 × 250 mm, 5 μm, flow rate 1.3 mL/min).

The subject of data set [2] is cap-dependent translation in rabbit reticulocyte lysate (RRL). Put plainly: inhibition of cap-dependent translation in rabbit reticulocyte lysate (RRL). The class given is biochemical. Conditions: RRL, cap analog and mRNA added at the same time (no pre-incubation), 60 min, 30 °C; read-out: Translation Inhibition IC50. The protocol: After determining the affinity for eIF4E and susceptibility to DcpS, we evaluated the analogs as inhibitors of protein translation in rabbit reticulocyte lysates (RRL). To enable better assessment of how these two factors influenced inhibitory properties, we performed two sets of experiments. In the first set, cap analogs were added to RRL along with luciferase-encoding reporter mRNA followed by a protein activity (luminescence) readout after 1 h, whereas in the second set cap analogs were additionally preincubated in RRL for 1 h prior to addition of mRNA. Based on previously reported findings, we expected that in the second experimental setup, cap analogs susceptible to DcpS would lose their inhibitory potency, whereas compounds resistant to DcpS would remain similarly active.
The ability of the N7-benzyl cap analogues to inhibit cap-dependent translation was assayed in a rabbit reticulocyte lysate (RRL) system. Two sets of experiments were performed. In both variants, in vitro translation reactions (10 μL total volume) contained a tested cap analog (inhibitor) and an in vitro transcribed, ARCA-capped mRNA encoding Gaussia luciferase at 1 μg/mL final concentration. In experimental variant A, cap analogues at concentrations in the range of 0 to 64 μM and mRNA were added to the reaction mixture at the same time. Reactions were incubated at 30 °C for 60 min and then stopped by freezing in liquid nitrogen. In experimental variant B, the cap analogues were added at concentrations in the range of 0 to 160 μM. Reactions were pre-incubated at 30 °C for 60 min prior to addition of mRNA; after addition of mRNA incubation was continuous at 30 °C for 60 min and then stopped by freezing in liquid nitrogen. To detect luminescence from Gaussia luciferase, 50 μL of 10 ng/mL h-coelenterazine (NanoLight, Norman, OK, USA) in PBS was added to 10 μL of RRL and the luminescence was measured with a Synergy H1 (BioTek, Winooski, VT, USA) microplate reader.

Data set [3] has as its target eIF4E (Mus musculus, UniProt P63073). Put plainly: fluorescence anisotropy (FA) competition assay with eIF4E. In kind it is binding. Conditions: Table S2. From the text:
The KD values determined from the high-throughput assay were in qualitative agreement with data from time-synchronized fluorescence quenching titration, justifying the use of the former for evaluation of the whole set of caps. […] To additionally verify the binding affinity data (especially for 1q and 1r, as mentioned above), we determined the binding affinities for all analogs using another independent assay, based on fluorescence anisotropy. The KD data determined by this method correlated very well with the results reported above (Table S2, Figure S2).
Fractions of the compounds were independently tested using a different method based on fluorescence anisotropy (FA). These experiments were performed on a Synergy™ H1 plate reader in 96-well, black, non-binding assay plates. Each well contained appropriate buffer (50 mM HEPES/KOH pH 7.2, 100 mM KCl, 0.5 mM EDTA i 1 mM DTT), the fluorescent probe m^7GTP-triazol-FAM (10 nM), substrate (in a 2.08-fold dilution, starting from 60 μM) and protein eIF4E (100 nM). The m^7GTP-triazol-FAM was synthesized as describer earlier. All measurements were performed at 25 °C. Determined EC50 values were means ± SD of three independent experiments. The dissociation constants KD were then calculated using the equation described by Nikolovska-Coleska as described earlier.
A general note: In fluorescence polarisation assays a small probe gives low polarisation when free and higher when bound to something large.

For data set [4], the target named is eukaryotic translation initiation factor 4E (eIF4E) (Mus musculus, UniProt P63073). Put plainly: pyrene-probe fluorescent competitive-binding assay (PyFLINT-B) for cap analog-eIF4E. The source says:
High affinity for eIF4E is a desirable feature of cap analogs designed for modulating translation, either as small molecules or as a part of mRNA. Thus, we studied how different substituents at the N7-position affected eIF4E-cap interaction. To this end, we first determined the affinity of m^7GpppG and Bn^7GpppG (1a) using time-synchronized fluorescence quenching titration, a very precise and well-established, but low-throughput method. Next, to evaluate the whole set of the synthesized compounds (1a–1r), we used a high-throughput competitive-binding assay based on a pyrene-labeled fluorescent probe. From this assay we determined relative affinities of the compounds represented by half-effective concentrations (EC50) (Figure 3A–C), which were then used to calculate dissociation constant (KD) values for cap analog–eIF4E complexes using previously reported equations (Table 2, Figure 3D).
To determine the dissociation constants of the library of N7-benzylated dinucleotide 5′ cap analogs for translation initiation factor 4E, a fluorescent competitive-binding assay (PyFLINT-B) was applied as previously described. The experiments were performed on a Synergy™ H1 plate reader in 96-well, black, non-binding assay plates. Each well contained an appropriate buffer (50 mM Hepes/KOH pH 7.2, 100 mM KCl and 0.5 mM EDTA), pyrene probe m^7Gp5C4Py (10 nM), substrate (in half-logarithmic dilutions from 850 μM to 0.03 μM for compound 1m and from 100 μM to 0.003 μM for m^7GpppG and the rest of the compounds) and protein eIF4E (75 nM). The m^7Gp5C4Py was synthesized as describer earlier. The pyrene probe was dissolved in water and concentration was determined spectrometrically at 345 nm using the extinction coefficient (21,000 M^−1 cm^−1). The eIF4E protein was centrifuged after defrosting (5 min, 4 °C, 10k rcf) and its concentration was determined spectrometrically at 280 nm using the extinction coefficient (52,940 M^−1 cm^−1). The reaction mixtures were preincubated (15 min, 300 rpm, 30 °C). All measurements were performed at 30 °C and the fluorescence detection at 345 nm excitation and 378 nm emission was recorded.
To determine EC50 values, GraphPad Prism 9.1.2 software was used. To fit the curves to the obtained data we used the following formula:(1) Y=Bottom+ Top−Bottom/1+ X/EC50 where: X, cap analog (ligand) concentration; EC50, concentration of the cap analog resulting in half-maximal response from the fluorescent probe–protein complex; Bottom, minimal signal from the negative control, which contains only the free probe; Top, maximal signal from the positive control, the mixture of the protein and the fluorescent probe.
The dissociation constants KD were then calculated using the equation described by Nikolovska-Coleska et al.:(2) KD=EC50−Pt+PL50KD_probe/L50+1/L50/KD_probe+P0/KD_probe+1 where: EC50, concentration of the cap analog resulting in half-maximal response from the fluorescent probe–protein complex; [Pt], total protein concentration; [PL]50, concentration of the probe–protein complex at 50% inhibition; KD_probe, dissociation constant of the complex between the fluorescent probe and the protein; [L]50, probe concentration at 50% inhibition; [P]0, free protein concentration at 0% inhibition.

The test system of data set [5] is A549 cells. Put plainly: translational efficiency of mRNAs capped with the analogs in A549 cells (Gaussia luciferase). The class given is cell-based. The settings on record: mRNA capped with the analog; Gaussia luciferase activity in A549 cells 72 h post-transfection; normalized to m^7GpppG RNA. How it is done:
Finally, we tested the properties of arylmethyl cap analogs as reagents for co-transcriptional mRNA capping. […] Here, we sought to evaluate the translational properties of mRNAs capped with N7-arylmethyl analogs in cultured cells. To that end, the translation properties of transcripts capped with selected analogs were assessed in A549 cells. In vitro transcribed mRNAs encoding Gaussia luciferase, capped with compounds 1a–1k, 1m–1n, and 1p–1r or with reference analogues m^7GpppG and ARCA (m^7GmpppG), were purified via RP HPLC, transfected into A549 cells, and the protein activity (luminescence) was measured using a reporter assay at 72 h post-transfection. The total amount of protein produced over 72 h from each capped RNA was normalized to m^7GpppG RNA (Figure 6 and Figure S4). […] Namely, replacing the N7-methyl group with a benzyl moiety (1a) increased protein production over fivefold in A549 cells compared to m^7GpppG-capped mRNA (Figure 6).
The influence of N7-arylmethylated dinucleotide 5′ cap analogues on the translational properties of HPLC-purified IVT mRNA is shown in Figure S4, Measurements are total protein produced over 72 h by A549 cells transfected with capped mRNAs. Each plot in Figure S4 represents a single experiment consisting of three independent transfections of the cells at the same passage. Bars show mean value normalized to […] ± SD. In the main manuscript, all nine data points from three different cell passages were combined to present cumulative protein expression.

Chain of eukaryotic translation initiation factor 4E (eIF4E) (P63073 whole entry): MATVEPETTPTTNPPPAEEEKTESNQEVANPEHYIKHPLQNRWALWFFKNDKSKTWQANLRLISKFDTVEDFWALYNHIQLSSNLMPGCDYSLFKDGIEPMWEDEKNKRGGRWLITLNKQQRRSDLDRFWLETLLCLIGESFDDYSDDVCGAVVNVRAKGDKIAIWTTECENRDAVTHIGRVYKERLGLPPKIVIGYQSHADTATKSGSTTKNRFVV
Chain of eIF4E (P63073 whole entry): as above

On to `Nc1nc(O)c2c(n1)n([C@@H]1O[C@H](COP(=O)(O)OP(=O)([O-])OP(=O)(O)OC[C@H]3O[C@@H](n4cnc5c(=O)[nH]c(N)nc54)[C@H](O)[C@@H]3O)[C@@H](O)[C@H]1O)c[n+]2Cc1ccc(F)cc1F` [1j, 2,4-di-F-Bn^7GpppG], for which the “conversion after 1 h of incubation with hDcpS” value in data set [1] was approximately 70%. The “hDcpS Assay: fraction of the cap remaining after 1 h incubation with DcpS” value in data set [1] (37 °C, 1 h) worked out at 0.70. Moreover, the IC50 in data set [2] was determined as 8400 ± 1500 nM. Further, the EC50 in data set [3] (25 °C, probe m^7GTP-triazol-FAM 10 nM, eIF4E 100 nM) is 870 ± 50 nM; in data set [4] (Table S2), 6900 nM. In addition, the Kd in data set [3] (calculated from EC50) was 298 ± 18 nM; in data set [4] (pyrene-based high-throughput competition assay, 30 °C, KD calculated from EC50, read-out: KD Cap-eIF4E ± SD), 598 ± 87 nM.
In the case of m^7GmpppG [reference compound], the “Rel. Protein Expression” value in data set [5] is given as 8.6 ± 1.0.
